In the NIST ThermoML archive (doi:10.1021/je900732r):

Assay: mn = molality of the nth substance listed, in mol/kg
Conditions: 101 kPa, Liquid; for speed of sound: Pulse-echo method

[Co+2].[O-][Cl+3]([O-])([O-])[O-].[O-][Cl+3]([O-])([O-])[O-] [cobalt(II) perchlorate] + CO
Conditions | mass density, 283.15 K [kg/m3] | mass density, 288.15 K [kg/m3] | mass density, 293.15 K [kg/m3] | mass density, 298.15 K [kg/m3] | mass density, 303.15 K [kg/m3] | mass density, 308.15 K [kg/m3] | mass density, 313.15 K [kg/m3] | speed of sound, 298.15 K [m/s]
m1 = 0.04954 | 810.666 | 806.009 | 801.334 | 796.648 | 791.945 | 787.216 | 782.455 | 1108.2
m1 = 0.0652 | 813.871 | 809.222 | 804.551 | 799.871 | 795.174 | 790.456 | 785.712 | 1110.5
m1 = 0.08043 | 816.972 | 812.325 | 807.661 | 802.983 | 798.285 | 793.568 | 788.838 | 1112.6
m1 = 0.09601 | 820.184 | 815.542 | 810.881 | 806.21 | 801.517 | 796.812 | 792.084 | 1114.6
m1 = 0.1106 | 823.205 | 818.568 | 813.913 | 809.247 | 804.564 | 799.855 | 795.128 | 1116.9
m1 = 0.1255 | 826.259 | 821.625 | 816.975 | 812.313 | 807.634 | 802.929 | 798.211 | 1118.6
m1 = 0.157 | 832.839 | 828.214 | 823.572 | 818.918 | 814.251 | 809.557 | 804.844 | 1122.7
m1 = 0.1876 | 839.345 | 834.726 | 830.096 | 825.452 | 820.793 | 816.116 | 811.415 | 1127
m1 = 0.2171 | 845.636 | 841.028 | 836.402 | 831.765 | 827.115 | 822.438 | 817.746 | 1131
m1 = 0.2464 | 851.879 | 847.275 | 842.656 | 838.024 | 833.388 | 828.73 | 824.046 | 1135
m1 = 0.2747 | 858.053 | 853.458 | 848.847 | 844.226 | 839.592 | 834.938 | 830.254 | 1138.9
m1 = 0.3036 | 864.446 | 859.854 | 855.253 | 850.642 | 846.019 | 841.375 | 836.709 | 1143
